Experimental findings from patent US20220033407A1, “N-(pyridin-2-ylsulfonyl)cyclopropanecarboxamide Derivatives and their Use in the Treatment of Disease” (NOVARTIS AG, priority 2018, published 2022) are described below.

One assay has as its target T1, delF508-CFTR (Homo sapiens, UniProt P13569, DEL508-508).
T1 construct: functional activity of the CFTR channel (Chloride ion transport) in patient derived primary human bronchial epithelial cells; host or cells: patient-derived primary human bronchial epithelial cells (HBECs), delF508-CFTR
Nature of the assay: delF508-CFTR functional activity in primary human bronchial epithelial cells (HBECs), Multi-Transepithelial Clamp Circuit (MTECC-24) assay, equivalent short circuit current. It is filed as cell-based. Particulars: primary CF HBECs; for MTECC24 CFHBEC-Amax %: relative to reference combination 2 μM 3-(6-(1-(2,2-difluorobenzo[d][1,3]dioxol-5-yl)cyclopropane-1-carboxamido)-3-methylpyridin-2-yl)benzoic acid (24 h) + 0.5 μM N-(2,4-di-tert-butyl-5-hydroxyphenyl)-4-oxo-1,4-dihydroquinoline-3-carboxamide; for EC50: test compound added 24 h before assay, potentiator (S)-3-amino-6-methoxy-N-(3,3,3-trifluoro-2-hydroxy-2-methylpropyl)-5-(trifluoromethyl)picolinamide present at assay, mean of at least two replicates, read-out: MTECC24 CFHBEC-EC50. The source says: Measurement of delF508-CFTR Functional Activity in Primary Human Bronchial Epithelial Cells (HBECs) Using Multi-Transepithelial Clamp Circuit (MTECC-24) Assay
This assay measures the functional activity of the CFTR channel (Chloride ion transport) in patient derived primary human bronchial epithelial cells with forskolin activation and in the presence of the CFTR corrector wherein the corrector is a compound of the invention and the potentiator is (S)-3-amino-6-methoxy-N-(3,3,3-trifluoro-2-hydroxy-2-methylpropyl)-5-(trifluoromethyl)picolinamide.
Primary human delF508-CFTR bronchial epithelial cells were purchased from Asterand and cultured according to previously established methods (Fulcher et al. (2005) Methods Mol Med 107: 183-206). Briefly, vendor supplied cells were rapidly defrosted and added to a T175 flask in 50 mL growth media (Lonza BEBM media with Lonza BEGM singlequots). Media was replaced after 24 h and then cells were fed every other day until cells were 80-90% confluent, at which point cells were cryopreserved. These P1 vials were thawed at 37° C. as needed and added to T175 flasks in 50 mL growth media at 5×10^5 cells/flask. Media was replaced after 24 h, and then cells were fed every other day until 80-90% confluent. Cells were lifted with 5 mL Accutase at 37° C. for 5 minutes, centrifuged at 1000 rpms for 5 min (300 g), and resuspended in differentiation media (50% BEBM in DMEM, BEGM singlequots, all trans retinoic acid (5×10·8M)). Cells were then counted and cell suspension was added to collagen coated inserts at 3×10^4 cells/insert in 0.15 mL with 0.5 mL differentiation media on the basolateral side.
Apical and basolateral media were replaced on alternate days, and following day 7 (or when confluent plus 2 days), air liquid interface was established for approximately two weeks by removal of apical media. One day prior to use on the MTECC24 system (EP-Devices, EP Design, Belgium), 0.15 mL of warmed (37° C.) PBS was added to the apical surface of the cultures and returned to humidifier (37° C., 5% CO2 incubator) for 30 min before aspirating the apical surface to remove any mucus.
Compound treatments were then prepared. Compound dilutions, typically a 10 point concentration response with 1 in 3 dilution steps, were made in 100% DMSO before dilution 1 in 1000 into differentiation medium with a final DMSO concentration of 0.1% or 0.2% for the study. Compound containing medium was then transferred into the wells of a 24 well plate at 0.5 mL per well and warmed for 30 min in a 37° C. incubator prior to transferring washed inserts into the compound containing plates. Cells were incubated in compound containing medium (basolateral only) for 24 h prior to measurement in the MTECC24 system.
Following 24 hr treatment, compound dilutions were prepared again, diluted 1 in 1000 into 37° C. assay medium (F-12 Coon's modified, 20 mM HEPES pH7.4 with TRIS Base, No FCS or bicarbonate). Cells which were treated for 24 h with test compound were then transferred into plates containing 0.75 mL compound treatment in assay medium (basolateral) and 0.25 mL of the compound containing assay medium was added to the apical surface. The plates were then transferred to the heated plate compartments of the MTECC24 system for 45 min prior to measurements (this can also be done in a non-CO2 37° C. humidified incubator). Basolateral temperature should not exceed 36.5° C. and apical temperature should be approximately 35.5° C.
Modulators were added sequentially as follows while the MTECC24 instrument recorded the equivalent short circuit current (Ieq)
Prior to dilution into F-12 medium the stocks are as follows: Amiloride stock is 10 mM in H2O
Forskolin Stock is 10 mM in 100% DMSO
(S)-3-amino-6-methoxy-N-(3,3,3-trifluoro-2-hydroxy-2-methylpropyl)-5-(trifluoromethyl)picolinamide is 0.5 mM stock in 100% DMSO INH-172 (4-[[4-Oxo-2-thioxo-3-[3-trifluoromethyl)phenyl]-5-thiazolidinylidene]methyl]benzoic acid) stock is 30 mM in 100% DMSO […]

The target of a further assay is T2, delF508-CFTR-HRP (Homo sapiens, UniProt P13569, DEL508-508).
T2 construct: expressed in transfected cells
Nature of the assay: Measurement of delF508-CFTR-HRP surface expression in CFBE41o- cells (HRP luminescence).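 For DelF508-CFTR-HRP Amax %: percent efficacy relative to a reference CFTR corrector compound.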 Particulars: for Emax: CFBE41o-, read-out: DelF508-CFTR-HRP Amax %; for EC50: mean of at least two replicates. The assay is classed as cell-based. The method, boiled down:
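EC50 derived by logistic regression of triplicate surface-HRP luminescence, plate-normalized to the lowest-concentration median. Doxycycline (500 ng/mL, 48 h) induced delF508-CFTR-HRP in CFBE41o- cells; compounds then applied 24 h at 37° C, 10 μM top, 3-fold over 10 points.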

Structures are written as SMILES.

T2 sequence (P13569 with tags, fused parts or gaps DEL508-508): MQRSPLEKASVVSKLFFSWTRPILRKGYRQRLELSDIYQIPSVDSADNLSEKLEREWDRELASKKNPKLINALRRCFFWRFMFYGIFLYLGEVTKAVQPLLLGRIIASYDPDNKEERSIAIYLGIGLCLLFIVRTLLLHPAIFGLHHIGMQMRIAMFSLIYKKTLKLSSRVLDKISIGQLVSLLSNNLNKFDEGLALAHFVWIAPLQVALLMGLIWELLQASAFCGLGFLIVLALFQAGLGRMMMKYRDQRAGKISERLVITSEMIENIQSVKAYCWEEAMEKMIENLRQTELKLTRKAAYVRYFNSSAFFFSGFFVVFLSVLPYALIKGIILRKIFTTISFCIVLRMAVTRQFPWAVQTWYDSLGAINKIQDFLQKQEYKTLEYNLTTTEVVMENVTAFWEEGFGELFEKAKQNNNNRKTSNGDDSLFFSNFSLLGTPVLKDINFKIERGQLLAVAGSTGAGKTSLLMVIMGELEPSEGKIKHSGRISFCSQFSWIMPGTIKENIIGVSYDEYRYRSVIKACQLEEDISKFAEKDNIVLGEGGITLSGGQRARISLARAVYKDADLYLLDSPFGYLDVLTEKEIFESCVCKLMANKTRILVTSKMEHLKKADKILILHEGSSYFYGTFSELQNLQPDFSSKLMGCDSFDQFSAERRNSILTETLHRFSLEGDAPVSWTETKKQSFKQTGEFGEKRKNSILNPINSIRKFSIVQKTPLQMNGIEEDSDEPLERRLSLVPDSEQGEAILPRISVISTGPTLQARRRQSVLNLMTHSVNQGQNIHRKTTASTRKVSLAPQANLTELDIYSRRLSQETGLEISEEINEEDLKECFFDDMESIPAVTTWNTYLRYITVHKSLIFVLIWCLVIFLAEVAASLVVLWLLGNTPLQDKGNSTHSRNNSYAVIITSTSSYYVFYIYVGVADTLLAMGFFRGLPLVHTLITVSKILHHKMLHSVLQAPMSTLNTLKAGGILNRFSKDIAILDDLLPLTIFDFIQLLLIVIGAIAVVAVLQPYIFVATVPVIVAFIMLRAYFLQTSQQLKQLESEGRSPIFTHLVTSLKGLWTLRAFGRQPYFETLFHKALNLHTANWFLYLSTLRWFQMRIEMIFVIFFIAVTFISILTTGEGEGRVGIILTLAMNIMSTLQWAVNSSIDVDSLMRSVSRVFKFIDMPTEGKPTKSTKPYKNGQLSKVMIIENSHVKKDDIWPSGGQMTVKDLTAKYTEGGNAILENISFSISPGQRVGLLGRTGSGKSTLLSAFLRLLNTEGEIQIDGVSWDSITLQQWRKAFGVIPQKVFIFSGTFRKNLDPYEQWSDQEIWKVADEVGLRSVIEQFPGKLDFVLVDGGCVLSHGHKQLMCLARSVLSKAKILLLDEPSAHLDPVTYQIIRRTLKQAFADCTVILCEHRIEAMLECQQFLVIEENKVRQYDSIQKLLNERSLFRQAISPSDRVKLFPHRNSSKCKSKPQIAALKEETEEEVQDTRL
T1 sequence (P13569 with tags, fused parts or gaps DEL508-508): as above

Take `Cc1ccc(C2CCCCC2)c(OC2(C(=O)NS(=O)(=O)c3cccc(N4CCOC[C@@H]4C)n3)CC2)c1` [Example 2-2, (S)-1-(2-Cyclohexyl-5-methylphenoxy)-N-((6-(3-methylmorpholino)pyridin-2-yl)sulfonyl)cyclopropanecarboxamide]: on delF508-CFTR, the “MTECC24 CFHBEC-Amax %” value was 59% and the EC50 (in general, the concentration giving half of the maximal effect) was determined as 2 nM. At delF508-CFTR-HRP, the Emax stood at 561% and the EC50 stood at 1330 nM.
Regarding `O=C(NS(=O)(=O)c1cccc(N2CC[C@H](O)C2)n1)C1(Oc2cc(Cl)ccc2N2CC3CCC(C3)C2)CC1` [Example 9-18, 1-(2-(3-Azabicyclo[3.2.1]octan-3-yl)-5-chlorophenoxy)-N-((6-((S)-3-hydroxypyrrolidin-1-yl)pyridin-2-yl)sulfonyl)cyclopropanecarboxamide], on delF508-CFTR, the “MTECC24 CFHBEC-Amax %” value came to 148.1% and the EC50 was 548 nM. Also, at delF508-CFTR-HRP, the Emax stood at 510% and the midpoint of the response, the EC50, lay at 1300 nM.
Regarding `Cc1ccc(C2CCCCC2)c(OC2(C(=O)NS(=O)(=O)c3cccc(N4CCC(C)(N)C4)n3)CC2)c1` (stereo not shown) [Example 2-27, N-((6-(3-Amino-3-methylpyrrolidin-1-yl)pyridin-2-yl)sulfonyl)-1-(2-cyclohexyl-5-methylphenoxy)cyclopropanecarboxamide], on delF508-CFTR, the “MTECC24 CFHBEC-Amax %” value worked out at 104% and the EC50 was found to be 70 nM. At delF508-CFTR-HRP, the Emax was determined as 181% and the response was half-maximal at 2580 nM (EC50).
For `Cc1ccc([C@H]2CC[C@H](F)CC2)c(OC2(C(=O)NS(=O)(=O)c3cccc(N4CC(C)(O)C4)n3)CC2)c1` (single isomer, unassigned) [Example 4-1, 1-(2-(Trans-4-fluorocyclohexyl)-5-methylphenoxy)-N-((6-(3-hydroxy-3-methylazetidin-1-yl)pyridin-2-yl)sulfonyl)cyclopropane-1-carboxamide], in that order: 84%, 226 nM, 297% and 4030 nM.
Taken in the same sequence, the figures for `Cc1ccc(C2CCC(F)(F)CC2)c(OC2(C(=O)NS(=O)(=O)c3cccc(N4CCCC(CO)C4)n3)CC2)c1` (single isomer, unassigned) [Example 3-3-1] were 99%, 11 nM, 597% and 2870 nM.
For the molecule `Cc1ccc(C2CCCCC2)c(OC2(C(=O)NS(=O)(=O)c3cccc(N4CCC(C)(O)CC4)n3)CC2)c1` [Example 2-49, 1-(2-Cyclohexyl-5-methylphenoxy)-N-((6-(4-hydroxy-4-methylpiperidin-1-yl)pyridin-2-yl)sulfonyl)cyclopropane-1-carboxamide], at delF508-CFTR, the “MTECC24 CFHBEC-Amax %” value came out at 102% and the EC50 stood at 5 nM. Moreover, at delF508-CFTR-HRP, the Emax came to 391% and the EC50 worked out at 1050 nM.
Taken in the same sequence, the figures for `CC1(C)CCN(c2ccc(Cl)cc2OC2(C(=O)NS(=O)(=O)c3cccc(N4CCC(O)CC4)n3)CC2)CC1` [Example 9-41, 1-(5-Chloro-2-(4,4-dimethylpiperidin-1-yl)phenoxy)-N-((6-(4-hydroxypiperidin-1-yl)pyridin-2-yl)sulfonyl)cyclopropane-1-carboxamide] were 79.3%, 290 nM, 656% and 1580 nM.
Turning to `CC1(C)CCN(c2ccc(Cl)cc2OC2(C(=O)NS(=O)(=O)c3cccc(N4CC[C@H](O)C4)n3)CC2)CC1` [Example 8-1, (S)-1-(5-Chloro-2-(4,4-dimethylpiperidin-1-yl)phenoxy)-N-((6-(3-hydroxypyrrolidin-1-yl)pyridin-2-yl)sulfonyl)cyclopropane-1-carboxamide], at delF508-CFTR, the “MTECC24 CFHBEC-Amax %” value came to 197.2%. For the same molecule, the results for the EC50 at delF508-CFTR and at delF508-CFTR-HRP were 373 nM and 1740 nM, respectively.
On to `Cc1ccc(C2CCCC2)c(OC2(C(=O)NS(=O)(=O)c3cccc(NC[C@H](C)O)n3)CC2)c1` [Example 4-5, (S)-1-(2-Cyclopentyl-5-methylphenoxy)-N-((6-((2-hydroxypropyl)amino)pyridin-2-yl)sulfonyl)cyclopropane-1-carboxamide], for which, on delF508-CFTR, the “MTECC24 CFHBEC-Amax %” value is 82% and the EC50 was 10 nM. Also, on delF508-CFTR-HRP, the Emax worked out at 590% and the EC50 is 2810 nM.
For `Cc1ccc(C2CCCCC2)c(OC2(C(=O)NS(=O)(=O)c3cccc(N4CCC(C)(NC(=S)NC5CC5)CC4)n3)CC2)c1` [Example 2-23, 1-(2-Cyclohexyl-5-methylphenoxy)-N-((6-(4-(3-cyclopropylthioureido)-4-methylpiperidin-1-yl)pyridin-2-yl)sulfonyl)cyclopropanecarboxamide], in that order: 66%, 4 nM, 330% and 1850 nM.
Taken in the same sequence, the figures for `Cc1ccc(C2CCCCC2)c(OC2(C(=O)NS(=O)(=O)c3cccc(N4CCCC(NC(=O)OC(C)(C)C)C4)n3)CC2)c1` (stereo not shown) [Example 2-12, Tert-butyl (1-(6-(N-(1-(2-cyclohexyl-5-methylphenoxy)cyclopropanecarbonyl)sulfamoyl)pyridin-2-yl)piperidin-3-yl)carbamate] were 78%, 8 nM, 604% and 1530 nM.
Taken in the same sequence, the figures for `O=C(NS(=O)(=O)c1cccc(N2CC[C@H](O)C2)n1)C1(Oc2cc(Cl)ccc2N2CC3(CCCCC3)C2)CC1` [Example 9-1, (S)-1-(5-chloro-2-(2-azaspiro[3.5]nonan-2-yl)phenoxy)-N-((6-(3-hydroxypyrrolidin-1-yl)pyridin-2-yl)sulfonyl)cyclopropanecarboxamide] were 206.5%, 294 nM, 647% and 1060 nM.
Regarding `Cc1ccc(C2CCCCC2)c(OC2(C(=O)NS(=O)(=O)c3cccc(N4CCC(C(=O)OC5CCCC5)CC4)n3)CC2)c1` [Example 2-7], at delF508-CFTR, the “MTECC24 CFHBEC-Amax %” value is 63% and the EC50 turned out to be 16 nM. For the same molecule, on delF508-CFTR-HRP, the Emax amounted to 389% and a half-maximal effect (EC50) was put at 730 nM.
On to `Cc1ccc(C2CCC3(CCCC3)OC2)c(OC2(C(=O)NS(=O)(=O)c3cccc(N4CCC(O)(c5ccc(Cl)cc5)CC4)n3)CC2)c1` (single isomer, unassigned) [Example 11-3-2, N-((6-(4-(4-chlorophenyl)-4-hydroxypiperidin-1-yl)pyridin-2-yl)sulfonyl)-1-(5-methyl-2-(6-oxaspiro[4.5]decan-8-yl)phenoxy)cyclopropane-1-carboxamide], for which, at delF508-CFTR, the “MTECC24 CFHBEC-Amax %” value stood at 79.0% and the EC50 was 79 nM. For the same molecule, at delF508-CFTR-HRP, the “DelF508-CFTR-HRP Amax %” value is 481.9% and the midpoint of the response, the EC50, lay at 440 nM.
